Like-named read-outs stand apart in the source and are kept apart here.
Tests used:
[1] = test system: mouse melan-a cells; experiment: Melanocyte proliferant activity of piperine derivatives, SRB assay, 4 days, 10% FBS; type: cell-based; conditions: for activity at 1 µM / activity at 10 µM / activity at 25 µM / activity at 50 µM / activity at 100 µM: Mus musculus, Melan-a, 96 h; for Active at 10 μM? / More active than piperine at higher conc. (μM)? / Active at higher conc. (μM)?: overall summary; for More active than piperine at higher conc. (μM)?: concentrations at which more active than piperine; for Relative activity to piperine: (A-100) compound/(A-100) piperine; for Active at higher conc. (μM)?: concentrations at which active
Description: The plates were incubated at 37° C. in a 10% CO2, 90% air humidified atmosphere for the stated length of time. At the end of the incubation, an SRB assay was performed. Briefly, cells attached to the bottom of the plate were fixed by addition of cold trichloroacetic acid (TCA, 4° C., Aldrich, Dorset, UK) on the top of the growth medium (final TCA 20% w/v). The plate was placed at 4° C. for 1 hour before being gently washed five times with tap water. It was allowed to dry in air, or aided with a hair dryer to speed up the drying process, then 50 μl of 4% w/v SRB dissolved in 1% acetic acid in water was added to each well for 30 min. At the end of the staining period, unbound SRB was removed by washing 4 times with 1% acetic acid. The plate was air dried again, and 150 μl of 10 mM aqueous Tris base (Sigma-Aldrich Co. Ltd, Irvine, UK) was added into each well to solubilize the cell-bound dye.
Various piperine derivatives of formula (1) were synthesised and tested for melanocyte (mouse melan-a) proliferant activity in-vitro. Cells we re incubated with the test compound for 4 days, as previously for the mouse cells but with 10% FBS, after which the sulphorhodamine-B (SRB) assay was performed to determnine cell number SRB uptake was measured as optical density at 550 nm. The control assay was carried out on cells incubated without test compound. There were 2 or 3 series of experiments, each of which consisted of six replcate experiments.
Percentage cell growth was obtained with a given compound calculated as (optical density in the presence of the compound/control optical density)×100.
Melan-a cell proliferant activity for tested compounds was compared with that obtained with piperine. […] All figures are given with Standard Error of the Mean.

[2] = test system: melan-a cells; experiment: Dendricity of melan-a cells by observation under microscope; type: cell-based, mouse; parameters: key: +++: highly dendritic; ++: moderately dendritic; +: weakly dendritic; −: no effect; conditions: for Dendricity: Table 7
From the text: Effect on dendricity of melan-a cells by the test compounds was by observation under microscope. Dendricity is relevant to vitiligo since normal skin melanocytes have dendrites, but in vitiligo the melanocytes seem to lose these before they disappear from the patches.

[3] = read-out: growth of melan-a cells as % of control, dose experiment
[4] = 10 μM, read-out: growth of melan-a cells as % of control, dose experiment
[5] = single concentration (10 μM), melan-a, ± SEM, read-out: Percentage cell growth (Repeated experiments)
[6] = single concentration (10 μM), melan-a

| SMILES | "cross-over" effect relative to piperine ([1]; 10 μM versus 50 μM) | activity at 1 µM [1, 3] [%] | activity at 10 µM [1, 4] [%] | activity at 25 µM [1, 3] [%] | activity at 50 µM [1, 3] [%] | activity at 10 µM [1, 5] [%] | Active at 10 μM? ([1]; melan-a) | Stimulant activity [1, 6] | Dendricity ([2]; 10 μM) | activity at 100 µM [1, 3] [%] | Dentricity, dose experiment ([2]; 1 μM) | Dentricity, dose experiment ([2]; 10 μM) | Dentricity, dose experiment ([2]; 50 μM) | More active than piperine at higher conc. (μM)? [1] | Relative activity to piperine ([1]; 10 μM) | Active at higher conc. (μM)? [1] | Dentricity, dose experiment ([2]; 100 μM) |
| --- | --- | --- | --- | --- | --- | --- | --- | --- | --- | --- | --- | --- | --- | --- | --- | --- | --- |
| O=C(/C=C/C=C/c1ccc2c(c1)OCO2)N1CCCC1 [RV-A01, 5-E,E-piperinoylpyrrolidine] | less active than piperine at 10 μM but more active at 50 μM | 109 ± 7 | 122 ± 7 | 142 ± 21 | 186 ± 14 | 183 ± 34 | Yes | Positive | +++ |  |  |  |  |  |  |  |  |
| O=C(/C=C/C=C/c1ccc2c(c1)OCO2)N1CCOCC1 [RV-A02, 5-E,E-piperinoyl morpholine] |  | 125 ± 10 | 167 ± 17 | 171 ± 8 | 168 ± 12 |  | Yes | Positive | +++ |  |  |  |  |  |  |  |  |
| O=C(/C=C/C=C/c1ccc2c(c1)OCO2)NCc1ccc2c(c1)OCO2 [RV-A04, 5-E,E-piperinoylpiperinolymine] |  | 101 ± 12 | 138 ± 10 |  | 150 ± 15 |  | Yes^a | Non- significant here, but positive in dose response test | + | 71 ± 9 | − | + | + |  |  |  |  |
| CCCCCCNC(=O)/C=C/C=C/c1ccc2c(c1)OCO2 [RV-A05, 5-E,E-piperinoylhexylamine] |  | 155 ± 9 | 188 ± 13 | 178 ± 18 | 178 ± 8 |  | Yes | Positive | +++ |  |  |  |  | No |  |  |  |
| CC(C)CNC(=O)/C=C/C=C/c1ccc2c(c1)OCO2 [RV-A06, Piperlonguminine] |  | 134 ± 7 | 188 ± 14 | 172 ± 15 | 135 ± 24 | 147 ± 66 | Yes | Positive | +++ |  |  |  |  | No |  |  |  |
| CNC(=O)/C=C/C=C/c1ccc2c(c1)OCO2 [RV-A07, 5-E,E-piperinoylmethylamine] |  | 140 ± 12 | 170 ± 24 |  | 71 ± 5 | 170 ± 24 | Yes | Positive | ++ | 46 ± 2 | ++ | ++ | + | No | 0.6 | No | + |
| CCNC(=O)/C=C/C=C/c1ccc2c(c1)OCO2 [RV-A08, 5-E,E-piperinoylethylamine] |  | 139 ± 27 | 200 ± 14 |  | 81 ± 12 | 200 ± 14 | Yes | Positive | +++ | 62 ± 13 | ++ | +++ | + | No | 0.73 | No | + |
| CC(C)NC(=O)/C=C/C=C/c1ccc2c(c1)OCO2 [RV-A09, 5-E,E-piperinoylisopropylamine] |  | 187 ± 15 | 224 ± 19 |  | 85 ± 5 | 224 ± 19 | Yes | Positive | +++ | 42 ± 6 | +++ | +++ | + | No | 0.76 | No | + |
| O=C(/C=C/C=C/c1ccc2c(c1)OCO2)NC1CCCCC1 [RV-A10, 5-E,E-piperinoyl cyclohexylamine] |  | 301 ± 20 | 308 ± 29 |  | 155 ± 22 | 308 ± 29 | Yes | Positive | +++ | 100 ± 13 | +++ | +++ | + |  | 1.02 |  | + |
